Measured values: PMC5021374, “An Arginine Finger Regulates the Sequential Action of Asymmetrical Hexameric ATPase in the Double-Stranded DNA Translocation Motor” (Molecular and Cellular Biology, 2016)

Experiments:
[1] = biological target: T1, gp16 ATPase (ϕ29 motor ATPase gp16) (Bacillus phage phi29, UniProt P11014); assay: fluorescent phosphate binding protein assay of ATP hydrolysis; assay type: biochemical; conditions: DNA-dependent ATPase; tag in this assay not stated
T1 construct: gene 16; full-length gp16 with tags: SUMO-gp16 (Trp fluorescence), His-gp16 (trypsin probing), eGFP-gp16 (EMSA; N-terminal eGFP); homohexamer, monomer/dimer mixture in solution
T1 sequence (P11014 1-332): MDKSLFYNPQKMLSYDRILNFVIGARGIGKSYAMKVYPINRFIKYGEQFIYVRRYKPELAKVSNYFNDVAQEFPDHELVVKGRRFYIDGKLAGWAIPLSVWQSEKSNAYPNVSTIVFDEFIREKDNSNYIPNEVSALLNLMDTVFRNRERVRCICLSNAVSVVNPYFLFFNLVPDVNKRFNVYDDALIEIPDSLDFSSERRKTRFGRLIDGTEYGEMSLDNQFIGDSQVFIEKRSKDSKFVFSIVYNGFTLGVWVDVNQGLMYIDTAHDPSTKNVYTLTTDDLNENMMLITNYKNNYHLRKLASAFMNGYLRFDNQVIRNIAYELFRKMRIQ

[2] = biological target: T1, gp16 ATPase (ϕ29 motor ATPase gp16); assay: intrinsic tryptophan fluorescence (SUMO-gp16); also trypsin probing (His-gp16); assay type: binding; conditions: 2 mM Tris pH 8.0, 0.005% Tween 20, 1.5% PEG 8000, 0.5% acetone; excitation 280 nm
[3] = biological target: T1, gp16 ATPase (ϕ29 motor ATPase gp16); assay: EMSA with 33-bp Cy5-dsDNA (nucleotide-dependent DNA binding; indirect); conditions: nonhydrolysable ATP analog; 33-bp Cy5-dsDNA present; ambient temperature, 20 min

Row | Structure (SMILES) | fluorescent phosphate binding protein assay of ATP hydrolysis [1] | intrinsic tryptophan fluorescence (SUMO-gp16); also trypsin probing (His-gp16) [2] | EMSA with 33-bp Cy5-dsDNA (nucleotide-dependent DNA binding; indirect) [3]
1 | Nc1ncnc2c1ncn2[C@@H]1O[C@H](COP(=O)(O)OP(=O)(O)OP(=O)(O)O)[C@@H](O)[C@H]1O [ATP] | a phosphate binding protein conjugated to a fluorescent probe ... was used to assay ATP hydrolysis | both assays indicated a conformational change in the gp16-ATP complex | 
2 | Nc1ncnc2c1ncn2[C@@H]1O[C@H](COP(=O)(O)OP(=O)(O)OP(O)(O)=S)[C@@H](O)[C@H]1O [γ-S-ATP] |  |  | Stronger binding of gp16 to dsDNA was observed when gp16 was incubated with γ-S-ATP
